The values that follow come from patent US20250066371A1, “FLUOROALKOXYALKYLENE-DIHYDROIMIDAZO[5,1-D]TETRAZINONE COMPOUNDS AND RELATED COMPOUNDS AND THEIR USE IN TREATING MEDICAL CONDITIONS” (priority 2023, published 2025).

One data set deals with rats. Kind of data set: Animal model toxicity testing in rats. The note with it: tested doses exceeded those at which A1 caused 100% mortality.
Data set [1] has as its system LN229 gliobastoma cells MGMT+/MMR−. Kind of data set: Anti-cancer assay, isogenic LN229 cells, nuclei count (Example 43). In kind it is cell-based. The conditions noted are these: Homo sapiens, LN-229; LN229 MGMT+/MMR−; 120 hours; read-out: MGMT+ MMR− Activity. The source says: (§1) Cytotoxicity of the compounds may be measured in short-term cell viability assays against four isogenic LN229 glioblastoma cell lines engineered to be proficient or deficient in MGMT and/or MMR activity by using short hairpin RNAs (shRNAs) targeting MSH2. This approach allows for determination of the relationship between MGMT status, MMR status, and compound activity. LN229 cells are maintained in Dulbecco's Modified Eagle Medium (DMEM) supplemented with 10% fetal bovine serum, 1% Penicillin/Streptomycin, and 0.1% Fungin. DAY 0: Cells are plated into sterile 96-well plates (Corning Costar 96-well) at a concentration of 500 cells/well using a Multichannel pipettor. Then, assay plates are incubated overnight in a 37° C. 5% CO2 incubator. DAY 1: Compounds are prepared as 50 mM stocks in dimethyl sulfoxide (DMSO) and stored protected from light at room temperature (RT) until use. Prior to compound addition, a two-fold serial dilution of compound stock solutions is performed in DMSO from 30 mM to 0.117 mM in a 96-well Master plate. Vehicle control wells contain DMSO. 97 μL of media is added to each well of a new 96-well plate (Daughter plate) and 3 μL of drug solution from Master plate is added to corresponding wells in the Daughter plate resulting in a 3× plate. Three replicate dilution curves of each compound are run on each assay plate. The final concentration of compounds ranges from 300 μM to 1.171 μM (9-point, 2-fold dilution dose response curve), and the final DMSO concentration is 1%.
(§2) Assay plates are incubated for 120 hours at 37° C. in a humidified 5% CO2 incubator. DAY 5: Following incubation, cells are fixed with 4% paraformaldehyde and stained with Hoechst dye for nuclei visualization. Fixation, staining and washing is performed by using a Thermo Scientific Multidrop Combi. Images are acquired on a BioTek Cytation 5 Cell Imaging Multimode Reader and quantified using Cell Profiler image analysis software. Raw cell count data for test compounds are normalized to percent viability relative to the DMSO vehicle control.
(§3) Isogenic LN229 gliobastoma cells were maintained in Dulbecco's Modified Eagle Medium (DMEM) supplemented with 10% fetal bovine serum, 1% Penicillin/Streptomycin, and 0.1% Fungin. DAY 0: Cells were plated into sterile 96-well plates (Corning Costar 96-well) at a concentration of 500 cells/well using a Multichannel pipettor. Then, assay plates were incubated overnight in a 37° C. 5% CO2 incubator. DAY 1: Compounds were prepared as 50 mM stocks in dimethyl sulfoxide (DMSO) and stored protected from light at room temperature (RT) until use. Prior to compound addition, a two-fold serial dilution of compound stock solutions was performed in DMSO from 30 mM to 0.117 mM in a 96-well Master plate. Vehicle control wells contained DMSO. 97 μL of media was added to each well of a new 96-well plate (Daughter plate) and 3 μL of drug solution from Master plate was added to corresponding wells in the Daughter plate resulting in a 3× plate. Three replicate dilution curves of each compound were run on each assay plate. The final concentration of compounds ranged from 300 μM to 1.171 μM (9-point, 2-fold dilution dose response curve), and the final DMSO concentration was 1%.
(§4) Assay plates were incubated for 120 hours at 37° C. in a humidified 5% CO2 incubator. DAY 5: Following incubation, cells were fixed with 4% paraformaldehyde and stained with Hoechst dye for nuclei visualization. Fixation, staining and washing was performed by using a Thermo Scientific Multidrop Combi. Images were acquired on a BioTek Cytation 5 Cell Imaging Multimode Reader and quantified using Cell Profiler image analysis software. Raw cell count data for test compounds were normalized to percent viability relative to the DMSO vehicle control.

For data set [2], the system named is LN229 gliobastoma cells MGMT+/MMR+. The description is as above. The format is cell-based. The conditions noted are these: Homo sapiens, LN-229; LN229 MGMT+/MMR+; 120 hours; read-out: MGMT+ MMR+ Activity.
From the text: as §1, §2, §3, §4

Data set [3] deals with LN229 gliobastoma cells MGMT−/MMR+. Kind of data set: Anti-cancer assay, isogenic LN229 cells, nuclei count (Examples 43, 46). In kind it is cell-based. The conditions noted are these: Homo sapiens, LN-229; MGMT negative/MMR positive; Example 46, maximum concentration 200 μM; read-out: IC50 for causing the death of LN229 cells.
Data set [4] concerns LN229 gliobastoma cells MGMT−/MMR−. The data set is described as above. In kind it is cell-based. The conditions noted are these: Homo sapiens, LN-229; MGMT negative/MMR negative; Example 46, maximum concentration 200 μM; read-out: IC50 for causing the death of LN229 cells.
In data set [5] the test system is 885 barcoded cancer cell lines. Kind of data set: PRISM multiplexed cell-viability assay (Example 45). The format is cell-based. The conditions noted are these: 5-day treatment; for Log 2 fold change in abundance of the cells: 66.7 μM. The text has this:
The multiplexed cell-viability platform, PRISM (profiling relative inhibition simultaneously in mixtures), enabled multiplexed screening of Compound I-1 across 900 barcoded cell lines representing more than 45 lineages. Details of the assay technique are described in Yu, C., et al. “High-throughput identification of genotype-specific cancer vulnerabilities in mixtures of barcoded tumor cell lines,” Nat. Biotechnol. 2016, Vol. 34, p. 419-423; and Corsello, S. M., et al. “Discovering the anti-cancer potential of non-oncology drugs by systematic viability profiling,” Nat. Cancer, 2020, Vol. 1, p. 235-248; each of which are hereby incorporated by reference in their entirety.
Briefly, unique oligonucleotide barcodes are stably transduced into individual cancer cell lines. Following barcode transduction, individual cell lines are pooled together in groups of 20-25 based on growth rate similarity, then thawed into 384-well assay-ready plates, and treated with test compound. After 5 days of incubation, isolated mRNA is used to quantify transcribed barcode abundance of each individual cancer cell line to calculate relative viability (Log 2 fold change, “LFC”).
Compound I-1 was screened in the PRISM assay at 8-point dose (3-fold dilution) with a 5-day treatment with 885 cancer cell lines passing QC. Two PRISM cell line collections were used in the assay: PR500 (including only adherent cell lines) and PR300+(including adherent and suspension cell lines). Benchmark compounds (included in the validation compounds) were also tested at doses to ensure high data quality. All compounds were run in triplicate, and each plate contained positive (Bortezomib, 20 μM) and negative (DMSO) controls.

pIC50: −log10 of the molar value. A value given as a limit tells only on which side of the number the result lay.

`NC(=O)c1ncn2c(=O)n(CCOC(F)(F)F)nnc12` [Compound I-1, 4-Oxo-3-(2-(trifluoromethoxy)ethyl)-3,4-dihydroimidazo[5,1-d][1,2,3,5]tetrazine-8-carboxamide]: the adverse clinical signs entry in the data set with rats is on record as “no adverse clinical signs were observed”. In addition, the pIC50 was less than 4.00 in data set [1], less than 4.00 in data set [2], more than 4.70 in data set [3] and more than 4.70 in data set [4]. In addition, the “Log 2 fold change in abundance of the cells” value is reported as −3.5 to −2.0 in data set [5] (cell lines of Table 8), −2.0 to −1.0 in data set [5] (cell lines of Table 9), −1.0 to −0.5 in data set [5] (cell lines of Table 10) and −0.5 to −0.001 in data set [5] (cell lines of Table 11). The anti-cancer effect result in data set [5] (cell lines of Table 12) is reported as “did not appear to provide an anti-cancer effect”.
